Results from patent publication US20020137154A1, “Methods for improving cell growth and alcohol production during fermentation” (priority 2000, published 2002).
Read-outs that look alike come from different tables or passages of the source.

Tested on: recombinant Escherichia coli KO11
Assay: Batch fermentation of E. coli KO11 in 1% CSL medium and glucose with nutrient additives: ethanol production and cell growth
Assay type: cell-based
Conditions: for Ethanol Production Maximum / Ethanol yield / Initial Growth (OD @ 24 h) OD / Maximum Cell Density OD / Volumetric Productivity Average / Volumetric Productivity Maximum: 1% CSL+glucose; for activity at 500 µg/mL / activity at 250 µg/mL / activity at 750 µg/mL: Escherichia coli

CC=O [Acetaldehyde, acetaldehyde]
initial growth and maximum cell density as compared to a control (1% CSL and glucose, 0.25 g/L at the start): greatest initial growth and maximum cell density
ethanol production as compared to the control (1% CSL and glucose, 0.75 g/L at the start): highest amount of ethanol production
Ethanol Production Maximum (0.25 g/L at start): 40.31 g/L
Ethanol yield (0.25 g/L at start): 0.415 grams of ethanol/grams of added sugar
Initial Growth (OD @ 24 h) OD (0.25 g/L at start): 3.00 OD
Maximum Cell Density OD (0.25 g/L at start): 3.17 OD
Volumetric Productivity Average (0.25 g/L at start): 0.560 grams ethanol/(liter)(hour)
Volumetric Productivity Maximum (0.25 g/L at start): 0.678 grams ethanol/(liter)(hour)
Ethanol Production Maximum (0.5 + 0.25 g/L (start, 8 h)): 40.25 g/L
Ethanol yield (0.5 + 0.25 g/L (start, 8 h)): 0.414 grams of ethanol/grams of added sugar
Initial Growth (OD @ 24 h) OD (0.5 + 0.25 g/L (start, 8 h)): 2.64 OD
Maximum Cell Density OD (0.5 + 0.25 g/L (start, 8 h)): 2.99 OD
Volumetric Productivity Average (0.5 + 0.25 g/L (start, 8 h)): 0.419 grams ethanol/(liter)(hour)
Volumetric Productivity Maximum (0.5 + 0.25 g/L (start, 8 h)): 0.598 grams ethanol/(liter)(hour)
Ethanol Production Maximum (0.5 + 0.5 g/L (start, 8 h)): 40.03 g/L
Ethanol yield (0.5 + 0.5 g/L (start, 8 h)): 0.412 grams of ethanol/grams of added sugar
Initial Growth (OD @ 24 h) OD (0.5 + 0.5 g/L (start, 8 h)): 2.74 OD
Maximum Cell Density OD (0.5 + 0.5 g/L (start, 8 h)): 3.09 OD
Volumetric Productivity Average (0.5 + 0.5 g/L (start, 8 h)): 0.417 grams ethanol/(liter)(hour)
Volumetric Productivity Maximum (0.5 + 0.5 g/L (start, 8 h)): 0.659 grams ethanol/(liter)(hour)
Ethanol Production Maximum (0.5 g/L at start): 39.95 g/L
Ethanol yield (0.5 g/L at start): 0.411 grams of ethanol/grams of added sugar
Initial Growth (OD @ 24 h) OD (0.5 g/L at start): 2.77 OD
Maximum Cell Density OD (0.5 g/L at start): 2.96 OD
Volumetric Productivity Average (0.5 g/L at start): 0.416 grams ethanol/(liter)(hour)
Volumetric Productivity Maximum (0.5 g/L at start): 0.615 grams ethanol/(liter)(hour)
Ethanol Production Maximum (0.75 g/L at start): 43.44 g/L
Ethanol yield (0.75 g/L at start): 0.447 grams of ethanol/grams of added sugar
Initial Growth (OD @ 24 h) OD (0.75 g/L at start): 2.47 OD
Maximum Cell Density OD (0.75 g/L at start): 2.81 OD
Volumetric Productivity Average (0.75 g/L at start): 0.452 grams ethanol/(liter)(hour)
Volumetric Productivity Maximum (0.75 g/L at start): 0.699 grams ethanol/(liter)(hour)
activity at 500 µg/mL (8 h, read-out: Ethanol Production Maximum % Control, 1% CSL+glucose, 0.5 + 0.25 g/L (start, 8 h)): 109%
activity at 500 µg/mL (8 h, read-out: Ethanol Production Maximum % Control, 1% CSL+glucose, 0.5 + 0.5 g/L (start, 8 h)): 108%
activity at 500 µg/mL (8 h, read-out: Maximum Cell Density % Control, 1% CSL+glucose, 0.5 + 0.25 g/L (start, 8 h)): 111%
activity at 500 µg/mL (8 h, read-out: Maximum Cell Density % Control, 1% CSL+glucose, 0.5 + 0.5 g/L (start, 8 h)): 115%
activity at 500 µg/mL (8 h, read-out: Volumetric Productivity Average % Control, 1% CSL+glucose, 0.5 + 0.25 g/L (start, 8 h)): 109%
activity at 500 µg/mL (8 h, read-out: Volumetric Productivity Average % Control, 1% CSL+glucose, 0.5 + 0.5 g/L (start, 8 h)): 108%
activity at 500 µg/mL (8 h, read-out: Volumetric Productivity Maximum % Control, 1% CSL+glucose, 0.5 + 0.25 g/L (start, 8 h)): 116%
activity at 500 µg/mL (8 h, read-out: Volumetric Productivity Maximum % Control, 1% CSL+glucose, 0.5 + 0.5 g/L (start, 8 h)): 128%
activity at 250 µg/mL (24 h, read-out: Initial Growth (OD @ 24 h) % Control, 1% CSL+glucose, 0.25 g/L at start): 112%
activity at 500 µg/mL (24 h, read-out: Initial Growth (OD @ 24 h) % Control, 1% CSL+glucose, 0.5 + 0.25 g/L (start, 8 h)): 98.9%
activity at 500 µg/mL (24 h, read-out: Initial Growth (OD @ 24 h) % Control, 1% CSL+glucose, 0.5 + 0.5 g/L (start, 8 h)): 103%
activity at 500 µg/mL (24 h, read-out: Initial Growth (OD @ 24 h) % Control, 1% CSL+glucose, 0.5 g/L at start): 104%
activity at 750 µg/mL (24 h, read-out: Initial Growth (OD @ 24 h) % Control, 1% CSL+glucose, 0.75 g/L at start): 92.5%
activity at 250 µg/mL (read-out: Ethanol Production Maximum % Control, 1% CSL+glucose, 0.25 g/L at start): 109%
activity at 500 µg/mL (read-out: Ethanol Production Maximum % Control, 1% CSL+glucose, 0.5 g/L at start): 108%
activity at 750 µg/mL (read-out: Ethanol Production Maximum % Control, 1% CSL+glucose, 0.75 g/L at start): 117%
activity at 250 µg/mL (read-out: Maximum Cell Density % Control, 1% CSL+glucose, 0.25 g/L at start): 118%
activity at 500 µg/mL (read-out: Maximum Cell Density % Control, 1% CSL+glucose, 0.5 g/L at start): 110%
activity at 750 µg/mL (read-out: Maximum Cell Density % Control, 1% CSL+glucose, 0.75 g/L at start): 105%
activity at 250 µg/mL (read-out: Volumetric Productivity Average % Control, 1% CSL+glucose, 0.25 g/L at start): 145%
activity at 500 µg/mL (read-out: Volumetric Productivity Average % Control, 1% CSL+glucose, 0.5 g/L at start): 108%
activity at 750 µg/mL (read-out: Volumetric Productivity Average % Control, 1% CSL+glucose, 0.75 g/L at start): 117%
activity at 250 µg/mL (read-out: Volumetric Productivity Maximum % Control, 1% CSL+glucose, 0.25 g/L at start): 132%
activity at 500 µg/mL (read-out: Volumetric Productivity Maximum % Control, 1% CSL+glucose, 0.5 g/L at start): 120%
activity at 750 µg/mL (read-out: Volumetric Productivity Maximum % Control, 1% CSL+glucose, 0.75 g/L at start): 136%
